Values of other authors in publication PMC6363533 (Biochemistry, 2018).

Molecular target: antithrombin
Conditions: read-out: Kd of TNS binding to antithrombin; cited from earlier work

Question: Which Kd does the source give for `Cc1ccc(Nc2ccc3cc(S(=O)(=O)O)ccc3c2)cc1` [TNS, 2-p-toluidinylnaphthalene-6-sulfonate] here?
Answer: Its Kd is greater than 10 µM.
